Experimental data reported in patent publication US8263606B2 (Xenon Pharmaceuticals Inc., priority 2008, dated 2012).

Legend:
sodium channel = experiment: Guanidine influx assay (14C-guanidine radiotracer flux, in vitro); format: cell-based, human or rat; settings: guanidine influx assay using a known cell line that expresses a sodium channel
Description: This example describes an in vitro assay for testing and profiling test agents against human or rat sodium channels stably expressed in cells of either an endogenous or recombinant origin. The assay is also useful for determining the IC50 of a sodium channel blocking compound. The assay is based on the guanidine flux assay described by Reddy, N. L., et al., J. Med. Chem. (1998), 41(17):3298-302.
The guanidine influx assay is a radiotracer flux assay used to determine ion flux activity of sodium channels in a high-throughput microplate-based format. The assay uses ^14C-guanidine hydrochloride in combination with various known sodium channel modulators, to assay the potency of test agents. Potency is determined by an IC50 calculation. Selectivity is determined by comparing potency of the compound for the channel of interest to its potency against other sodium channels (also called ‘selectivity profiling’).
Each of the test agents is assayed against cells that express the channels of interest. Voltage gated sodium channels are either TTX sensitive or insensitive. This property is useful when evaluating the activities of a channel of interest when it resides in a mixed population with other sodium channels. The following Table 1 summarizes cell lines useful in screening for a certain channel activity in the presence or absence of TTX.
It is also possible to employ recombinant cells expressing these sodium channels. Cloning and propagation of recombinant cells are known to those skilled in the art (see, for example, Klugbauer, N, et al., EMBO J. (1995), 14(6):1084-90; and Lossin, C., et al., Neuron (2002), 34, pp. 877-884).
Cells expressing the channel of interest are grown according to the supplier or in the case of a recombinant cell in the presence of selective growth media such as G418 (Gibco/Invitrogen). The cells are disassociated from the culture dishes with an enzymatic solution (Ix) Trypsin/EDTA (Gibco/Invitrogen) and analyzed for density and viability using haemocytometer (Neubauer). Disassociated cells are washed and resuspended in their culture media then plated into Scintiplates (Beckman Coulter Inc.) (approximately 100,000 cells/well) and incubated at 37° C./5% CO2 for 20-24 hours. After an extensive wash with Low sodium HEPES-buffered saline solution (LNHBSS) (150 mM Choline Chloride, […] (Sigma), 1 mM Calcium Chloride, 5 mM Potassium Chloride, 1 mM Magnesium Chloride, 10 mM Glucose) agents diluted with LNHBSS are added to each well. (Varying concentrations of test agent may be used). The activation/radiolabel mixture contains aconitine (Sigma) to increase the percentage of time that the sodium channels are open, and ^14C-guanidine hydrochloride (ARC) to measure flux through the voltage-gated sodium channels.
After loading the cells with test agent and activation/radiolabel mixture, the Scintiplates are incubated at ambient temperature. Following the incubation, the Scintplates are extensively washed with LNHBSS supplemented with guanidine (Sigma). The Scintiplates are dried and then counted using a Wallac MicroBeta TriLux (Perkin-Elmer Life Sciences). The ability of the test agent to block sodium channel activity is determined by comparing the amount of ^14C-guanidine present inside the cells expressing the different sodium channels.
The IC50 value of a test agent for a specific sodium channel may be determined using the above general method. […] Typically the mid-point concentration of test agent is set at 1 μM, and sequential concentrations of half dilutions greater or smaller are applied (e.g. 0.5 μM; 5 μM and 0.25 μM; 10 μM and 0.125 μM; 20 μM etc.). The IC50 curve is calculated using the 4 Parameter Logistic Model or Sigmoidal Dose-Response Model formula (fit=(A+((B−A)/(1+((C/x)^D)))).
The fold selectivity, factor of selectivity or multiple of selectivity, is calculated by dividing the IC50 value of the test sodium channel by the reference sodium channel, for example, Nav1.5. […]

CYP3A4 = CYP3A4 (Homo sapiens, UniProt P08684); experiment: Cytochrome P450 (CYP450) Inhibition Assay, CYP3A4 (Vivid fluorescence, BOMCC substrate); settings: for inhibition at 10 µM: human, P450 Baculosomes (recombinant CYP3A4), probe BOMCC (Vivid substrate)
CYP3A4, sequence (P08684 whole entry): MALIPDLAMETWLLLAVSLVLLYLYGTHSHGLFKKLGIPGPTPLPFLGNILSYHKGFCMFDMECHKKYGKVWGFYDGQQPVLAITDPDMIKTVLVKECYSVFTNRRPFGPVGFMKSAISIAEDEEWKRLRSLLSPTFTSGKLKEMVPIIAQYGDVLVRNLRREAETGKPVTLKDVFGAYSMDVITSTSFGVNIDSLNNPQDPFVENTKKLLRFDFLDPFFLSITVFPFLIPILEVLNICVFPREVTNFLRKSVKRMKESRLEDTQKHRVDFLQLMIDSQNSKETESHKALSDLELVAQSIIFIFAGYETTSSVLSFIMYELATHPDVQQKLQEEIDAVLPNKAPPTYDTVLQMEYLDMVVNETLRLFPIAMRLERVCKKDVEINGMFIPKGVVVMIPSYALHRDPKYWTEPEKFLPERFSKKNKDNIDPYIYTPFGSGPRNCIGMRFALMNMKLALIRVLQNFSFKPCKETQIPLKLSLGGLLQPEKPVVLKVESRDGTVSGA

COCCOCCN1C(=O)C2(COc3cc(OCCOC)ccc32)c2ccccc21 (stereo not drawn) [Example 9.75, 6-(2-methoxyethoxy)-1′-[2-(2-methoxyethoxy)ethyl]spiro[1-benzofuran-3,3′-indol]-2′(1′H)-one]
IC50 (sodium channel): 100 to 1000 nM
inhibition at 10 µM (CYP3A4): < 50%

O=C1N(Cc2cncs2)c2ccccc2C12COc1cc3c(cc12)OCCO3 (stereo not drawn) [Example 7.11]
IC50 (sodium channel; activity level class): 1 to 100 nM
inhibition at 10 µM (CYP3A4): > 50%

NC(=O)c1ccc(CN2C(=O)C3(COc4cc5c(cc43)CCO5)c3ccccc32)cc1 (stereo not drawn) [Example 12.31, 4-[(2′-oxo-5,6-dihydrospiro[benzo[1,2-b:5,4-b′]difuran-3,3′-indol]-1′(2′H)-yl)methyl]benzamide]
IC50 (sodium channel): 1 to 100 nM
inhibition at 10 µM (CYP3A4): > 50%

O=C1N(Cc2ccc(C(F)(F)F)o2)c2ccccc2C12COc1cc(F)c(F)cc12 (stereo not drawn) [Example 9.32, 5,6-difluoro-1′-{[5-(trifluoromethyl)furan-2-yl]methyl}spiro[1-benzofuran-3,3′-indol]-2′(1′H)-one]
IC50 (sodium channel; activity level class): 1000 to 10000 nM
inhibition at 10 µM (CYP3A4): > 50%

O=C1Nc2ccc3ncsc3c2C12COc1cc3c(cc12)OCCO3 (stereo not drawn) [Example 3.49, 2,3-dihydrospiro[furo[2,3-g][1,4]benzodioxine-8,8′-[1,3]thiazolo[5,4-e]indol]-7′(6′H)-one]
IC50 (sodium channel; activity level class): 1000 to 10000 nM
inhibition at 10 µM (CYP3A4): > 50%

O=C1N(Cc2ccccn2)c2ccccc2C12COc1cc3c(cc12)S(=O)(=O)C=C3 (stereo not drawn) [Example 5.31, 1-(pyridin-2-ylmethyl)spiro[indole-3,3′-thieno[2,3-f][1]benzofuran]-2(1′H)-one 5,5′-dioxide]
IC50 (sodium channel; activity level class): 1000 to 10000 nM
inhibition at 10 µM (CYP3A4): < 50%

COc1cc2c(cc1F)C1(CO2)C(=O)N(CC2CCOCC2)c2ccccc21 (stereo not drawn) [Example 9.29, 5-fluoro-6-methoxy-1-(tetrahydro-2H-pyran-4-ylmethyl)spiro[1-benzofuran-3,3′-indol]-2′(1′H)-one]
IC50 (sodium channel; activity level class): 1000 to 10000 nM
inhibition at 10 µM (CYP3A4): < 50%

O=C1N(Cc2ncccc2C(F)(F)F)c2ccccc2C12COc1cc3c(cc12)OCCO3 (stereo not drawn) [Example 7.13]
IC50 (sodium channel; activity level class): 1 to 100 nM
inhibition at 10 µM (CYP3A4): > 50%

NC(=O)c1coc(CN2C(=O)C3(COc4cc5c(cc43)CCO5)c3ccccc32)n1 (stereo not drawn) [Example 13.3, 2-[(2′-oxo-5,6-dihydrospiro[benzo[1,2-b:5,4-b′]difuran-3,3′-indol]-1′(2′H)-yl)methyl]-1,3-oxazole-4-carboxamide]
IC50 (sodium channel): 100 to 1000 nM
inhibition at 10 µM (CYP3A4): < 50%

CCC(=O)CN1C(=O)[C@@]2(COc3cc4c(cc32)OCCO4)c2ccccc21 [Example 4.109, (S)-1′-(2-oxobutyl)-3,7-dihydro-2H-spiro[benzofuro[5,6-b][1,4]dioxine-8,3′-indolin]-2′-one]
IC50 (sodium channel; activity level class): 1 to 100 nM
inhibition at 10 µM (CYP3A4): < 50%

Cc1nonc1CN1C(=O)C2(COc3cc4c(cc32)OCCO4)c2ccccc21 (stereo not drawn) [Example 7.18, 1′-[(4-methyl-1,2,5-oxadiazol-3-yl)methyl]-2,3-dihydrospiro[furo[2,3-g][1,4]benzodioxine-8,3′-indol]-2′(1′H)-one]
IC50 (sodium channel; activity level class): 1 to 100 nM
inhibition at 10 µM (CYP3A4): < 50%

O=C1N(Cc2ccccn2)c2ccccc2C12COc1cc3c(cc12)OCCC3 (stereo not drawn) [Example 5.28, 1′-(pyridin-2-ylmethyl)-7,8-dihydro-6H-spiro-[furo[2,3-g]chromene-3,3′-indol]-2′(1′H)-one]
IC50 (sodium channel; activity level class): 1 to 100 nM
inhibition at 10 µM (CYP3A4): > 50%

CS(=O)(=O)Nc1cccc(CN2C(=O)C3(COc4cc5c(cc43)OCCO5)c3ccccc32)c1 (stereo not drawn) [Example 11.94, N-{3-[(2′-oxo-2,3-dihydrospiro[furo[2,3-g][1,4]benzodioxine-8,3′-indol]-1′(2′H)-yl)methyl]phenyl}methanesulfonamide]
IC50 (sodium channel): 100 to 1000 nM
inhibition at 10 µM (CYP3A4): > 50%

CN(C)C(=O)c1cccc2c1C1(COc3cc4c(cc31)OCCO4)C(=O)N2C (stereo not drawn) [Example 16.78, N,N,1′-trimethyl-2′-oxo-1′,2,2′,3-tetrahydrospiro[furo[2,3-g][1,4]benzodioxine-8,3′-indole]-4′-carboxamide]
inhibition at 10 µM (CYP3A4): < 50%

O=C1N(Cc2ccc(O)cn2)c2ccccc2C12COc1cc3c(c(F)c12)OCCO3 (stereo not drawn) [Example 5.27, 9-fluoro-1′-[(5-hydroxypyridin-2-yl)methyl]-2,3-dihydrospiro[furo[2,3-g][1,4]benzodioxine-8,3′-indol]-2′(1′H)-one]
IC50 (sodium channel; activity level class): 100 to 1000 nM
inhibition at 10 µM (CYP3A4): > 50%

Cn1ccc2cc(-c3cccc4c3C3(COc5cc6c(cc53)CCO6)C(=O)N4C[C@H]3CCCO3)ccc21 (stereo partly drawn) [Example 16.4, 4′-(1-methyl-1H-indol-5-yl)-1′-[(2R)-tetrahydrofuran-2-ylmethyl]-5,6-dihydrospiro[benzo[1,2-b:5,4-b′]difuran-3,3′-indol]-2′(1′H)-one]
IC50 (sodium channel): 100 to 1000 nM
inhibition at 10 µM (CYP3A4): > 50%

COc1ccc(Oc2cccc3c2C2(COc4cc5c(cc42)OCCO5)C(=O)N3C)cn1 (stereo not drawn) [Example 16.82, 4′-[(6-methoxypyridin-3-yl)oxy]-1′-methyl-2,3-dihydrospiro[furo[2,3-g][1,4]benzodioxine-8,3′-indol]-2′(1′H)-one]
inhibition at 10 µM (CYP3A4): < 50%

O=C1N(CCC2CC2)c2ccccc2C12COc1cc3c(cc12)OCCO3 (stereo not drawn) [Example 7.6]
inhibition at 10 µM (CYP3A4): < 50%

COCCCN1C(=O)C2(COc3cc4c(cc32)OCCO4)c2ccccc21 (stereo not drawn) [Example 7.9]
inhibition at 10 µM (CYP3A4): < 50%

CN1C(=O)C2(COc3cc4c(cc32)OCCO4)c2c(Oc3cccc(N4CCOCC4)c3)cccc21 (stereo not drawn) [Example 16.81, 1′-methyl-4′-(3-morpholin-4-ylphenoxy)-2,3-dihydrospiro[furo[2,3-g][1,4]benzodioxine-8,3′-indol]-2′(1′H)-one]
inhibition at 10 µM (CYP3A4): > 50%

CC(=O)c1cccc2c1C1(COc3cc4c(cc31)OCCO4)C(=O)N2C (stereo not drawn) [Example 24, 4′-acetyl-t-methyl-2,3-dihydrospiro[furo[2,3-g][1,4]benzodioxine-8,3′-indol]-2′(1′H)-one]
% Inhibition of CYP3A4 (CYP3A4; at 10 μM): A (percent inhibition of less than 50% at 10 μM)

CC(C)NC(=O)N1CCC(CN2C(=O)C3(COc4cc5c(cc43)CCO5)c3ccccc32)C1 (stereo not drawn) [11.62, N-(1-methylethyl)-3-[(2′-oxo-5,6-dihydrospiro[benzo[1,2-b:5,4-b′]difuran-3,3′-indol]-1′(2′H)-yl)methyl]pyrrolidine-1-carboxamide]
inhibition at 10 µM (CYP3A4): > 50%

CN1C(=O)C2(COc3cc4c(cc32)OCCO4)c2c(Oc3ccc4c(c3)OCO4)cccc21 (stereo not drawn) [Example 16.83, 4′-(1,3-benzodioxol-5-yloxy)-1′-methyl-2,3-dihydrospiro[furo[2,3-g][1,4]benzodioxine-8,3′-indol]-2′(1′H)-one]
inhibition at 10 µM (CYP3A4): > 50%

CCCCCCN1C(=O)C2(COc3cc4c(cc32)OCCO4)c2ccccc21 (stereo not drawn) [Example 7.5, 1′-hexyl-2,3-dihydrospiro[furo[2,3-g][1,4]benzodioxine-8,3′-indol]-2′(1′H)-one]
inhibition at 10 µM (CYP3A4): > 50%

O=C1N(C[C@H]2CCCO2)c2ccccc2[C@]12COc1cc3c(cc12)CCO3 [Example 11.62, (3S)-1′-[(2R)-tetrahydrofuran-2-ylmethyl]-5,6-dihydrospiro[benzo[1,2-b:5,4-b′]difuran-3,3′-indol]-2′(1′H)-one]
inhibition at 10 µM (CYP3A4): < 50%

CCOCCN1C(=O)C2(COc3cc4c(cc32)OCCO4)c2ccccc21 (stereo not drawn) [Example 7.7]
inhibition at 10 µM (CYP3A4): < 50%

CN1C(=O)C2(COc3cc4c(cc32)OCCO4)c2c(OCc3ccc(F)cc3)cccc21 (stereo not drawn) [Example 16.86, 1′-methyl-4-(4-fluorobenzyloxy)-2,3-dihydrospiro[furo[2,3-g][1,4]benzodioxine-8,3′-indol]-2′(1′H)-one]
inhibition at 10 µM (CYP3A4): > 50%
